# From patent EP0600950B1, “AMIDE TETRAZOLE ACAT INHIBITORS” (priority 1991, dated 1993)
# Biological target: acyl-CoA: cholesterol acyltransferase (ACAT)
# Experiment: in vitro ACAT inhibition, rabbit intestinal microsomes (IAI)
# Assay type: biochemical
# Settings: radiolabeled cholesterol oleate formed from radiolabeled oleic acid
# From the text: The test assesses the ability of a test compound to inhibit the acylation of cholesterol by oleic acid by measuring the amount of radiolabeled cholesterol oleate formed from radiolabeled oleic acid in a tissue preparation containing rabbit intestinal microsomes (designated IAI) or from rat liver microsomes (designated LAI).
row,IC50 [nM],Structure (SMILES)
1,91,"CCCCCCCCCCCCn1nnc(C(C(=O)Nc2ccccc2)c2ccccc2)n1 (racemic) [Example 14, (±)-2-dodecyl-N,α-diphenyl-2H-tetrazole-5-acetamide]"
2,8,"CCCCCCCCCCCCn1nnc(C(C(=O)Nc2c(C(C)C)cccc2C(C)C)c2ccccc2)n1 (racemic) [Example 15, (±)-N-[2,6-bis(1-methylethyl)phenyl]-2-dodecyl-α-phenyl-2H-tetrazole-5-acetamide]"
3,14,"CCCCCCCCCCCCn1nnc(C(C(=O)Nc2c(C)nn(C)c2C)c2ccccc2)n1 (racemic) [Example 19, (±)-2-dodecyl-α-phenyl-N-(1,3,5-trimethyl-1H-pyrazol-4-yl)-2H-tetrazole-5-acetamide]"
4,15,"CCCCCCCCCCCCn1nnc(C(C(=O)Nc2ccc(F)cc2F)c2ccccc2)n1 (racemic) [Example 21, (±)-N-(2,4-difluoro-phenyl)-2-dodecyl-α-phenyl-2H-tetrazole-5-acetamide]"
5,91,"CCCCCCCCCCCCn1nnc(C(C(=O)Nc2ccccn2)c2ccccc2)n1 (racemic) [Example 22, (±)-2-dodecyl-α-phenyl-N-2-pyridinyl-2H-tetrazole-5-acetamide]"
6,7.5,"CCCCCCCCCCCCn1nnc(C(C(=O)Nc2ncccc2C)c2ccccc2)n1 (racemic) [Example 23, (±)-2-dodecyl-N-(3-methyl-2-pyridinyl)-α-phenyl-2H-tetrazole-5-acetamide]"
7,41,"CCCCCCCCCCCCn1nnc(C(C(=O)Nc2c(C)ccc[n+]2[O-])c2ccccc2)n1 (racemic) [Example 24, (±)-2-Dodecyl-N-(3-methyl-2-pyridinyl)-2-phenyl-2H-tetrazole-5-acetamide, N-oxide]"
8,800,"CCCCCCCCCCCCn1nnnc1C(C(=O)Nc1ccc(F)cc1F)c1ccccc1 (racemic) [Example 25, (±)-N-(2,4-Difluorophenyl)-1-dodecyl-α-phenyl-1H-tetrazole-5-acetamide]"
9,79,"CCCCCCCCCCCCn1nnnc1C(C(=O)Nc1c(C(C)C)cccc1C(C)C)c1ccccc1 (racemic) [Example 26, (±)-N-[2,6-Bis(1-methylethyl)phenyl]-1-dodecyl-α-phenyl-1H-tetrazole-5-acetamide]"
10,770,"CCCCCCCCCCCCn1nnc(C(C(=O)NC(C)(C)C)c2ccccc2)n1 (racemic) [Example 30, (±) N-(1,1-dimethylethyl)-2-dodecyl-α-phenyl-2H-tetrazole-5-acetamide]"
11,26,"CCCCCCCCCCCCn1nnc(C(C(=O)Nc2c(C(C)C)cccc2C(C)C)c2ccccn2)n1 (racemic) [Example 55, (±)-N-[2,6-Bis(1-methylethyl)phenyl]-2-dodecyl-α-2-pyridinyl-2H-tetrazole-5-acetamide]"
12,14,"CCCCCCCCCCCCn1nnc(C(C(=O)Nc2c(OC)cc(OC)cc2OC)c2ccccc2)n1 (single isomer, unassigned; (+)) [Example 62, (+)-2-Dodecyl-α-phenyl-N-(2,4,6-trimethoxy-phenyl)-2H-tetrazole-5-acetamide]"
13,310,"CCCCCCCCCCCCn1nnc(C(C(=O)Nc2c(OC)cc(OC)cc2OC)c2ccccc2)n1 (single isomer, unassigned; (-)) [Example 61, (-)-2-Dodecyl-α-phenyl-N-(2,4,6-trimethoxy-phenyl)-2H-tetrazole-5-acetamide]"

# Second part, the compound before the results:
row,Structure (SMILES),IC50 [nM]
1,"CCCCCCCCCCCCn1nnc(C(C(=O)Nc2c(OC)cc(OC)cc2OC)c2ccccc2)n1 (racemic) [Example 13, (±) 2-Dodecyl-α-phenyl-N-(2,4,6-trimethoxyphenyl)-2H-tetrazole-5-acetamide]",9
2,"CCCCCCCCCCCCn1nnc(C(C(=O)Nc2c(OC)ncnc2OC)c2ccccc2)n1 (racemic) [Example 16, (±)-N-(4,6-dimethoxy-5-pyrimidinyl)-2-dodecyl-α-phenyl-2H-tetrazole-5-acetamide]",8
3,"CCCCCCCCCCCCn1nnc(C(C(=O)Nc2ccc3c(C)cc(C)nc3n2)c2ccccc2)n1 (racemic) [Example 17, (±)-N-(5,7-dimethyl-1,8-naphthyridine-2-yl)-2-dodecyl-α-phenyl-2H-tetrazole-5-acetamide]",190
4,"CCCCCCCCCCCCn1nnc(C(C(=O)Nc2cnc3c(C)cc(C)cc3c2-c2ccccc2Cl)c2ccccc2)n1 (racemic) [Example 18, (±)-N-[4-(2-chlorophenyl)-6,8-dimethyl-3-quinolinyl]-2-dodecyl-α-phenyl-2H-tetrazole-5-acetamide]",28
5,"CCCCCCCCCCCCn1nnc(C(C(=O)NC2CC2)c2ccccc2)n1 (racemic) [Example 20, (±)-N-cyclopropyl-2-dodecyl-α-phenyl-2H-tetrazole-5-acetamide]",47
6,"CCCCCCCCn1nnc(C(C(=O)Nc2c(OC)cc(OC)cc2OC)c2ccccc2)n1 (racemic) [Example 31, (±)-2-Octyl-α-phenyl-N-(2,4,6-trimethoxyphenyl)-2H-tetrazole-5-acetamide]",270
7,"CCCCCCCCCCCCCCCCn1nnc(C(C(=O)Nc2c(OC)cc(OC)cc2OC)c2ccccc2)n1 (racemic) [Example 32, (±) 2-Hexadecyl-α-phenyl-N-(2,4,6-trimethoxyphenyl)-2H-tetrazole-5-acetamide]",53
8,"CCCCCCCCCCCCn1nnc(C(C)(C(=O)Nc2c(OC)cc(OC)cc2OC)c2ccccc2)n1 (racemic) [Example 44, (±)-2-Dodecyl-α-methyl-α-phenyl-N-(2,4,6-trimethoxyphenyl)-2H-tetrazole-5-acetamide]",29
9,"CCCCCCCCCCCCn1nnc(C(C(=O)Nc2c(OC)cc(OC)cc2OC)c2ccc(N(C)C)cc2)n1 (racemic) [Example 51, (±)-α-[4-dimethylamino)phenyl]-2-dodecyl-N-(2,4,6-trimethoxy-phenyl)-2H-tetrazole-5-acetamide]",660
10,"CCCCCCCCCCCCn1nnc(C(C(=O)Nc2c(OC)cc(OC)cc2OC)c2ccc(F)cc2)n1 (racemic) [Example 52, (±)-2-Dodecyl-α-(4-fluorophenyl)-N-(2,4,6-trimethoxyphenyl)-2H-tetrazole-5-acetamide]",36
11,"CCCCCCCCCCCCn1nnc(C(C(=O)Nc2c(OC)cc(OC)cc2OC)c2ccc3ccccc3c2)n1 (racemic) [Example 53, (±)-2-Dodecyl-α-2-naphthalenyl-N-(2,4,6-trimethoxyphenyl)-2H-tetrazole-5-acetamide]",97
12,"CCCCCCCCCCCCn1nnc(C(C(=O)Nc2c(OC)cc(OC)cc2OC)c2ccc(-c3ccccc3)cc2)n1 (racemic) [Example 54, (±)-α-([1,1'-biphenyl]-4-yl)-2-dodecyl-N-(2,4,6-trimethoxy-phenyl)-2H-tetrazole-5-acetamide]",220
13,"CCCCCCCCCCCCn1nnc(C(C)C(=O)Nc2c(OC)cc(OC)cc2OC)n1 (racemic) [Example 58, (±)-2-Dodecyl-α-(methyl)-N-(2,4,6-trimethoxy-phenyl)-2H-tetrazole-5-acetamide]",31
14,"CCCCCCCCCCCCn1nnc(C(Cc2ccccc2)C(=O)Nc2c(OC)cc(OC)cc2OC)n1 (racemic) [Example 59, (±)-2-Dodecyl-α-(phenylmethyl)-N-(2,4,6-trimethoxyphenyl)-2H-tetrazole-5-acetamide]",49
15,"CCCCCCCCCCCCn1nnc(C(C(=O)Nc2c(OC)cc(OC)cc2OC)C2CCCCC2)n1 (racemic) [Example 60, (±)-2-Dodecyl-α-(cyclohexyl)-N-(2,4,6-trimethoxy-phenyl)-2H-tetrazole-5-acetamide]",28
